Experimental data as given in patent US20260365682A1, “MODULATORS OF TNF-ALPHA ACTIVITY” (Forward Therapeutics, Inc., priority 2022, published 2026).

molecular target: T1, TNF-α (Homo sapiens, UniProt P01375); assay: TNF-α Induced HEK Blue Cellular Assay (secreted alkaline phosphatase expression, QUANTI-Blue); type: cell-based; details: HEK Blue TNFα reporter cells; TNF-α 100 μg/ml; 24 hrs at 37° C.; inhibition of secreted alkaline phosphatase; read-out: IC50 value
T1 construct: purchased R&D 210-TA-020/CF
T1 sequence (P01375 77-233 limits assumed): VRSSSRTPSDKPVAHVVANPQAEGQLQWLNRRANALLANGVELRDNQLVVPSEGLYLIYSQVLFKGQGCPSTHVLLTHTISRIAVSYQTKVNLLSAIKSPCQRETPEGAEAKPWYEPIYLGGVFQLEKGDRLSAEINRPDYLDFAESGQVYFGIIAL
In short: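 HEK Blue TNFα reporter cells (10,000/well) in DMEM with 10% FBS received compound ([…] to 0.5 nM final) and TNF-α at […] final for 24 h at 37° C. Secreted alkaline phosphatase read with QUANTI-Blue at 620 nm. IC50 came from a 4-parameter logistic fit after normalising to unstimulated and stimulated DMSO controls.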

| Compound | IC50 |
| --- | --- |
| [2H]C([2H])([2H])N1C(=O)c2cccc(OC(F)F)c2[C@H]2C[C@@H]1c1nc3ccc(C#CC4CC(C)(C#N)C4)cc3n12 (stereo partly drawn) [Example 159, 3-(((7R,14R)-1-(difluoromethoxy)-6-(methyl-d3)-5-oxo-5,6,7,14-tetrahydro-7,14-methanobenzo[f]benzo[4,5]imidazo[1,2-a][1,4]diazocin-11-yl)ethynyl)-1-methylcyclobutane-1-carbonitrile] | < 100 nM |
| [2H]C([2H])([2H])N1C(=O)c2cccc(OC(F)F)c2[C@H]2C[C@@H]1c1nc3ccc(C#CCOCC(F)(F)F)cc3n12 [Example 160, (7R,14R)-1-(difluoromethoxy)-6-(methyl-d3)-11-(3-(2,2,2-trifluoroethoxy)prop-1-yn-1-yl)-6,7-dihydro-7,14-methanobenzo[f]benzo[4,5]imidazo[1,2-a][1,4]diazocin-5(14H)-one] | < 100 nM |
| [2H]C([2H])([2H])N1C(=O)c2cccc(OC(F)F)c2[C@H]2C[C@@H]1c1nc3ccc(C#CC4(C)CN(C(=O)C5CC5)C4)cc3n12 [Example 161, (7R,14R)-11-((1-(cyclopropanecarbonyl)-3-methylazetidin-3-yl)ethynyl)-1-(difluoromethoxy)-6-(methyl-d3)-6,7-dihydro-7,14-methanobenzo[f]benzo[4,5]imidazo[1,2-a][1,4]diazocin-5(14H)-one] | < 100 nM |
| [2H]C([2H])([2H])N1C(=O)c2cccc(OC(F)F)c2[C@H]2C[C@@H]1c1nc3ccc(C#CC4(C)CN(S(C)(=O)=O)C4)cc3n12 [Example 162, (7R,14R)-1-(difluoromethoxy)-6-(methyl-d3)-11-((3-methyl-1-(methylsulfonyl)azetidin-3-yl)ethynyl)-6,7-dihydro-7,14-methanobenzo[f]benzo[4,5]imidazo[1,2-a][1,4]diazocin-5(14H)-one] | < 100 nM |
| [2H]C([2H])([2H])N1C(=O)c2cccc(OC(F)F)c2[C@H]2C[C@@H]1c1nc3ccc(C#CCCN(C)C)cc3n12 [Example 163, (7R,14R)-1-(difluoromethoxy)-11-(4-(dimethylamino)but-1-yn-1-yl)-6-(methyl-d3)-6,7-dihydro-7,14-methanobenzo[f]benzo[4,5]imidazo[1,2-a][1,4]diazocin-5(14H)-one] | 100 to 1000 nM |
| [2H]C([2H])([2H])N1C(=O)c2cccc(OC(F)F)c2[C@H]2C[C@@H]1c1nc3ccc(C#CC4(C)CN(CCO)C4)cc3n12 [Example 164, (7R,14R)-1-(difluoromethoxy)-11-((1-(2-hydroxyethyl)-3-methylazetidin-3-yl)ethynyl)-6-(methyl-d3)-6,7-dihydro-7,14-methanobenzo[f]benzo[4,5]imidazo[1,2-a][1,4]diazocin-5(14H)-one] | 100 to 1000 nM |
| [2H]C([2H])([2H])N1C(=O)c2cccc(OC(F)F)c2[C@H]2C[C@@H]1c1nc3ccc(C#CC4(C)CN(C(=O)C5(C)CC5)C4)cc3n12 [Example 165, (7R,14R)-1-(difluoromethoxy)-6-(methyl-d3)-11-((3-methyl-1-(1-methylcyclopropane-1-carbonyl)azetidin-3-yl)ethynyl)-6,7-dihydro-7,14-methanobenzo[f]benzo[4,5]imidazo[1,2-a][1,4]diazocin-5(14H)-one] | 100 to 1000 nM |
| [2H]C([2H])([2H])N1C(=O)c2cccc(OC(F)F)c2[C@H]2C[C@@H]1c1nc3ccc(C#CC4CN(C(=O)C5(C)CC5)C4)cc3n12 [Example 166, (7R,14R)-1-(difluoromethoxy)-6-(methyl-d3)-11-((1-(1-methylcyclopropane-1-carbonyl)azetidin-3-yl)ethynyl)-6,7-dihydro-7,14-methanobenzo[f]benzo[4,5]imidazo[1,2-a][1,4]diazocin-5(14H)-one] | < 100 nM |
| [2H]C([2H])([2H])N1C(=O)c2cccc(OC(F)F)c2[C@H]2C[C@@H]1c1nc3ccc(C#CC4(C)CN(C(=O)C(C)(C)C)C4)cc3n12 [Example 167, (7R,14R)-1-(difluoromethoxy)-6-(methyl-d3)-11-((3-methyl-1-pivaloylazetidin-3-yl)ethynyl)-6,7-dihydro-7,14-methanobenzo[f]benzo[4,5]imidazo[1,2-a][1,4]diazocin-5(14H)-one] | < 100 nM |

More lines, now with the values ahead:

| IC50 | Compound |
| --- | --- |
| 100 to 1000 nM | [2H]C([2H])([2H])N1C(=O)c2cccc(OC(F)F)c2[C@H]2C[C@@H]1c1nc3ccc(C#CC4CC4)c(F)c3n12 [Example 168, (7R,14R)-11-(cyclopropylethynyl)-1-(difluoromethoxy)-12-fluoro-6-(methyl-d3)-6,7-dihydro-7,14-methanobenzo[f]benzo[4,5]imidazo[1,2-a][1,4]diazocin-5(14H)-one] |
| 100 to 1000 nM | [2H]C([2H])([2H])N1C(=O)c2cccc(OC(F)F)c2[C@H]2C[C@@H]1c1nc3ccc(C#C[C@H](C)O)cc3n12 [Example 169, (7R,14R)-1-(difluoromethoxy)-11-((S)-3-hydroxybut-1-yn-1-yl)-6-(methyl-d3)-6,7-dihydro-7,14-methanobenzo[f]benzo[4,5]imidazo[1,2-a][1,4]diazocin-5(14H)-one] |
| < 100 nM | [2H]C([2H])([2H])N1C(=O)c2cccc(OC(F)F)c2[C@H]2C[C@@H]1c1nc3ccc(C#CC)c(F)c3n12 [Example 170, (7R,14R)-1-(difluoromethoxy)-12-fluoro-6-(methyl-d3)-11-(prop-1-yn-1-yl)-6,7-dihydro-7,14-methanobenzo[f]benzo[4,5]imidazo[1,2-a][1,4]diazocin-5(14H)-one] |
| < 100 nM | [2H]C([2H])([2H])N1C(=O)c2cccc(OC(F)F)c2[C@H]2C[C@@H]1c1nc3ccc(C#CCNC(=O)C4CC4)cc3n12 [Example 171, N-(3-((7R,14R)-1-(difluoromethoxy)-6-(methyl-d3)-5-oxo-5,6,7,14-tetrahydro-7,14-methanobenzo[f]benzo[4,5]imidazo[1,2-a][1,4]diazocin-11-yl)prop-2-yn-1-yl)cyclopropanecarboxamide] |
| < 100 nM | [2H]C([2H])([2H])N1C(=O)c2cccc(OC(F)F)c2[C@H]2C[C@@H]1c1nc3ccc(C#CCCl)cc3n12 [Example 172, (7R,14R)-11-(3-chloroprop-1-yn-1-yl)-1-(difluoromethoxy)-6-(methyl-d3)-6,7-dihydro-7,14-methanobenzo[f]benzo[4,5]imidazo[1,2-a][1,4]diazocin-5(14H)-one] |
| < 100 nM | [2H]C([2H])([2H])N1C(=O)c2cccc(OC(F)F)c2[C@H]2C[C@@H]1c1nc3ccc(C#CC4CCN(C(C)=O)CC4)cc3n12 [Example 173, (7R,14R)-11-((1-acetylpiperidin-4-yl)ethynyl)-1-(difluoromethoxy)-6-(methyl-d3)-6,7-dihydro-7,14-methanobenzo[f]benzo[4,5]imidazo[1,2-a][1,4]diazocin-5(14H)-one] |
| < 100 nM | [2H]C([2H])([2H])N1C(=O)c2cccc(OC(F)F)c2[C@H]2C[C@@H]1c1nc3ccc(C#CC4CCN(C(=O)C5CC5)CC4)cc3n12 [Example 174, (7R,14R)-11-((1-(cyclopropanecarbonyl)piperidin-4-yl)ethynyl)-1-(difluoromethoxy)-6-(methyl-d3)-6,7-dihydro-7,14-methanobenzo[f]benzo[4,5]imidazo[1,2-a][1,4]diazocin-5(14H)-one] |
| < 100 nM | [2H]C([2H])([2H])N1C(=O)c2cccc(OC(F)F)c2[C@H]2C[C@@H]1c1nc3c(F)cc(C#CC4CC4)cc3n12 [Example 175, (7R,14R)-11-(cyclopropylethynyl)-1-(difluoromethoxy)-9-fluoro-6-(methyl-d3)-6,7-dihydro-7,14-methanobenzo[f]benzo[4,5]imidazo[1,2-a][1,4]diazocin-5(14H)-one] |
| < 100 nM | [2H]C([2H])([2H])N1C(=O)c2cccc(OC(F)F)c2[C@H]2C[C@@H]1c1nc3ccc(C#CC4CC(C)(O)C4)cc3n12 (stereo partly drawn) [Example 177, (7R,14R)-1-(difluoromethoxy)-11-((3-hydroxy-3-methylcyclobutyl)ethynyl)-6-(methyl-d3)-6,7-dihydro-7,14-methanobenzo[f]benzo[4,5]imidazo[1,2-a][1,4]diazocin-5(14H)-one] |
| 100 to 1000 nM | [2H]C([2H])([2H])N1C(=O)c2cccc(OC(F)F)c2[C@H]2C[C@@H]1c1nc3ccc(C#CC4(C)CN(CC(F)(F)F)C4)cc3n12 [Example 178, (7R,14R)-1-(difluoromethoxy)-6-(methyl-d3)-11-((3-methyl-1-(2,2,2-trifluoroethyl)azetidin-3-yl)ethynyl)-6,7-dihydro-7,14-methanobenzo[f]benzo[4,5]imidazo[1,2-a][1,4]diazocin-5(14H)-one] |
| 10000 to 30000 nM | [2H]C([2H])([2H])N1C(=O)c2cccc(OC(F)F)c2[C@H]2C[C@@H]1c1nc3ccc(C#C[C@@H](C)O)cc3n12 [Example 179, (7R,14R)-1-(difluoromethoxy)-11-((R)-3-hydroxybut-1-yn-1-yl)-6-(methyl-d3)-6,7-dihydro-7,14-methanobenzo[f]benzo[4,5]imidazo[1,2-a][1,4]diazocin-5(14H)-one] |
| 10000 to 30000 nM | [2H]C([2H])([2H])N1C(=O)c2cccc(OC(F)F)c2[C@H]2C[C@@H]1c1nc3ccc(C#CC4(C)CCN(C(C)=O)CC4)cc3n12 [Example 180, (7R,14R)-11-((1-acetyl-4-methylpiperidin-4-yl)ethynyl)-1-(difluoromethoxy)-6-(methyl-d3)-6,7-dihydro-7,14-methanobenzo[f]benzo[4,5]imidazo[1,2-a][1,4]diazocin-5(14H)-one] |

same assay, conditions: IC50 value, HEK Blue TNFα reporter cells; TNF-α 100 μg/ml; 24 hrs at 37° C.; inhibition of secreted alkaline phosphatase

| Compound | IC50 |
| --- | --- |
| [2H]C([2H])([2H])N1C(=O)c2cccc(OC(F)F)c2[C@H]2C[C@@H]1c1nc3ccc(C#CCOC4CCC4)cc3n12 [Example 176, (7R,14R)-11-(3-cyclobutoxyprop-1-yn-1-yl)-1-(difluoromethoxy)-6-(methyl-d3)-6,7-dihydro-7,14-methanobenzo[f]benzo[4,5]imidazo[1,2-a][1,4]diazocin-5(14H)-one] | 100 to 1000 nM |
